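A five-concentration, 48-hour dose response in 96-well plates underlies each endpoint, interpolated linearly between surrounding concentrations. The concentration for 50% growth inhibition is given as GI50.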 Active and inactive are the calls of the source. No stated cut-off is given here; in the data, active = GI50 up to about 1.1 µM and inactive = higher.
Tests used:
Test in all cases: NCI anticancer screen, dose series, 48 h
[1] = tested on: HOP-92
[2] = tested on: LXFL 529
[3] = tested on: DMS-114
[4] = tested on: NCI-H522
[5] = tested on: CCRF-CEM
[6] = tested on: SK-OV-3
[7] = tested on: HL-60
[8] = tested on: SN12C
[9] = tested on: HCT-116
[10] = tested on: KM12
[11] = tested on: RXF 393
[12] = tested on: TK-10
[13] = tested on: SF-539
[14] = tested on: HCT-15
[15] = tested on: RPMI-8226
[16] = tested on: LOX IMVI
[17] = tested on: 786-0
[18] = tested on: HT-29
[19] = tested on: U-251
[20] = tested on: DLD-1
[21] = tested on: COLO 205
[22] = tested on: SK-MEL-28
[23] = tested on: UO-31
[24] = tested on: M19-MEL
[25] = tested on: SW-620
[26] = tested on: HOP-62
[27] = tested on: IGROV-1
[28] = tested on: OVCAR-8
[29] = tested on: UACC-62
[30] = tested on: DMS-273
[31] = tested on: OVCAR-3
[32] = tested on: A549
[33] = tested on: MOLT-4
[34] = tested on: OVCAR-5
[35] = tested on: K562
[36] = tested on: Malme-3M
[37] = tested on: SR
[38] = tested on: SK-MEL-2
[39] = tested on: M14
[40] = tested on: OVCAR-4
[41] = tested on: A498
[42] = tested on: HCC 2998
[43] = tested on: SNB-75
[44] = tested on: SK-MEL-5
[45] = tested on: HOP-18
[46] = tested on: SF-268
[47] = tested on: ACHN
[48] = tested on: NCI-H460
[49] = tested on: SF-295
[50] = tested on: SNB-19
[51] = tested on: CAKI-1
[52] = tested on: NCI-H23

With `Cc1cn(C2OC(C)(CO)C(O)C2O)c(=O)[nH]c1=O` (configuration not stated) the GI50 [1] was > 100 µM (inactive), the GI50 [2] was > 100 µM (inactive) and the GI50 [3] was > 100 µM (inactive). The GI50 [4] was > 100 µM (inactive), the GI50 [5] was > 100 µM (inactive) and the GI50 [6] was > 100 µM (inactive). The GI50 [7] was > 10 µM (inactive), the GI50 [8] was > 100 µM (inactive) and the GI50 [9] was > 100 µM (inactive). The GI50 [10] was > 100 µM (inactive), the GI50 [11] was > 100 µM (inactive) and the GI50 [12] was > 100 µM (inactive). For the same compound, the GI50 [13] was > 100 µM (inactive), the GI50 [14] was greater than 100 µM and the GI50 [15] was > 100 µM (inactive). The GI50 [16] was > 100 µM (inactive), the GI50 [17] was > 100 µM (inactive) and the GI50 [18] was > 100 µM (inactive). The GI50 [19] was > 100 µM (inactive), the GI50 [20] was > 100 µM (inactive) and the GI50 [21] was > 100 µM (inactive). For the same compound, the GI50 [22] was > 100 µM (inactive), the GI50 [23] was > 100 µM (inactive) and the GI50 [24] was > 100 µM (inactive). For the same compound, the GI50 [25] was > 100 µM (inactive), the GI50 [26] was > 100 µM (inactive) and the GI50 [27] was > 100 µM (inactive). For the same compound, the GI50 [28] was > 100 µM (inactive), the GI50 [29] was > 100 µM (inactive) and the GI50 [30] was > 100 µM (inactive). The GI50 [31] was > 100 µM (inactive), the GI50 [32] was > 100 µM (inactive) and the GI50 [33] was > 100 µM (inactive). The GI50 [34] was > 100 µM (inactive), the GI50 [35] was > 100 µM (inactive) and the GI50 [36] was > 100 µM (inactive). For the same compound, the GI50 [37] was > 100 µM (inactive), the GI50 [38] was > 100 µM (inactive) and the GI50 [39] was > 100 µM (inactive). For the same compound, the GI50 [40] was > 100 µM (inactive), the GI50 [41] was > 100 µM (inactive) and the GI50 [42] was > 100 µM (inactive). For the same compound, the GI50 [43] was > 100 µM (inactive), the GI50 [44] was > 100 µM (inactive) and the GI50 [45] was > 100 µM (inactive). The GI50 [46] was > 100 µM (inactive), the GI50 [47] was > 100 µM (inactive) and the GI50 [48] was > 100 µM (inactive). For the same compound, the GI50 [49] was > 100 µM (inactive), the GI50 [50] was > 100 µM (inactive) and the GI50 [51] was > 100 µM (inactive). The GI50 [52] was > 100 µM (inactive).

— ChEMBL document CHEMBL1201862, “PubChem BioAssay data set” (2004)
